Measurements taken from patent US10126304B2, “Binding domain mapping” (George Mason Research Foundation, Inc., priority 2013, dated 2018).
Entries after “also recorded” stand apart in the source; their conditions may differ.

Tests used:
[1] = molecular target: T1, IL1R1 molecule, soluble portion (Homo sapiens, UniProt P14778); experiment: Trypsin sites blocked by small organic molecules on folded protein, mass spectrometry; type: biochemical
T1 construct: Linear representation of IL1R1 molecule, soluble portion; purchased Adipogen
T1 sequence (P14778 21-336): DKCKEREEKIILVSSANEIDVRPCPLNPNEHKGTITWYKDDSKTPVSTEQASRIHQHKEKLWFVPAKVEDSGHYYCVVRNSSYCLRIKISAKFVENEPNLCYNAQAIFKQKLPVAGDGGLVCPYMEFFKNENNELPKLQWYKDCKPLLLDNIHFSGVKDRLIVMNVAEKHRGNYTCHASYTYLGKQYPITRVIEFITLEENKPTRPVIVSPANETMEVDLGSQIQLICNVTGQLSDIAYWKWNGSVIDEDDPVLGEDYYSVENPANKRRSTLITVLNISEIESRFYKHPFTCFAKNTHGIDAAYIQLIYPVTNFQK
From the text: The binding of the small organic molecules is localized to multiple sites restricted to the surface of the protein, and excluded from internal domains of protein-protein interactions […]. […] Thus these molecules can be employed to reveal a) the inner contact domains of a single folded protein or b) the contact domains of two or more interacting proteins.
To identify functional protein-protein interaction domains, three equimolar concentrations of Interleukin ligand, its cognate receptor, and its accessory proteins were selected as a proof of concept protein complex. Interleukin 1β (IL1β, Gibco, 65 pmoles in 50 μl PBS), Interleukin 1 receptor type I (IL1RI, Adipogen, 65 pmoles in 50 μl PBS), and Interleukin 1 receptor accessory protein (IL1RAcP, Novoprotein, 65 pmoles in 50 μl PBS), were allowed to interact for one hour at room temperature under rotation. […]
As a control to identify solvent accessible surface areas, protein solutions were prepared in parallel at the same concentrations without adding paint molecules. […] Equal quantities of unbound, Interleukin 1β, IL1RI, or IL1RAcP were mixed individually with each of the four molecular paints (3 proteins×4 paints, n=12) in a 1:10 molar ratio (protein:molecular paint). […]
The solutions were immediately passed through a size sieving Sephadex column (PD MiniTrap G 25, GE Healthcare) and the flow through was collected, denatured with urea (final concentration 2M), reduced with 1 M dithiothreitol (Sigma, 15 minutes at 37° C.), alkylated with 0.5 M iodoacetamide (Sigma, 15 minutes, room temperature in the dark), and digested with trypsin (Promega) at 1:10 w/w protease/protein ratio for 2 hours at 37° C. Tryptic peptides were purified by Zip-Tip (Millipore) following manufacturer's instructions, and analyzed by reversed-phase liquid chromatography nanospray tandem mass spectrometry (LC-MS/MS) using an LTQ-Orbitrap mass spectrometer (ThermoFisher).

[2] = test system: SAPK/JNK signaling downstream from IL1RI; experiment: SAPK/JNK signaling in IL1β stimulated NCI/ADR-RES cells, western blotting; type: cell-based; settings: IL1β 10 ng/mL; Arg286 peptide 3.3, 16.7 and 33 μM; scrambled peptide 33 μM
Experimental: NCI/ADR-RES cells (Division of Cancer Treatment and Diagnosis, National Cancer Institute) were cultured in Dulbecco's modified Eagle's medium (Gibco) with 10% fetal bovine serum (ATCC), and 2 mM L-glutamine (ATCC) at 37° C., 5% CO2, in a humidified environment. NCI/ADR-RES cells (2×10^6 cells/well) were plated into 6-well tissue culture dishes. The following day, cells were pre-treated for 30 minutes with soluble IL1RAcP (1 μg/mL) lacking the trans-membrane domain, Arg286 peptide ([…], 3.3, 16.7 and 33 μM) (SEQ ID NO:6) and a scrambled peptide obtained by randomly shuffling Arg286 sequence ([…], 33 μM) (SEQ ID NO:7). Cells were washed with Dulbecco's modified Eagle's medium with 10% fetal bovine serum, and 2 mM glutamine and were stimulated with IL1β at 10 ng/ml for 30 min. Following incubation, cells were washed in ice-cold PBS, incubated with 100 μl of cell lysis buffer (10% Bond Breaker TCEP solution (Thermo Scientific), 45% T-PER tissue protein extraction reagent (Thermo Scientific) and 45% Novex Tris Glycine SDS sample buffer 2× (Invitrogen)), scraped, transferred to Eppendorf tubes, and heated at 100° C. for 10 minutes. Cell lysates were analyzed by western blotting.
Proteins were separated by 1-D gel electrophoresis in 4-20% Tris-Glycine gel in the presence of Tris-Glycine SDS running buffer with the following run conditions: 125 V, 90 minutes. […]

[3] = molecular target: T2, IL1β-IL1RI-IL1RAcP complex (Homo sapiens, UniProt P01584+P14778); experiment: Pull-down of IL1β within the receptor complex by His-tagged IL1RAcP (immunoprecipitation); type: binding; settings: Arg286 peptide 6.7, 3.3, 1.7, 0.8 and 0.4 μM
T2 construct: purchased Gibco (IL1β); Adipogen (IL1RI); Novoprotein (IL1RAcP)
Experimental: IL1β (0.44 μg/mL), IL1RI (2 μg/mL) and 6×His-tagged IL1RAcP (0.72 μg/mL) were incubated with Arg286 peptide (6.7, 3.3, 1.7, 0.8 and 0.4 μM) in 50 μl of PBS for one hour at room temperature under rotation. In parallel, […], IL1RI and 6×His-tagged IL1RAcP were allowed to interact without Arg286 peptide as a positive control. IL1β, and 6×His-tagged IL1RAcP were allowed to interact in absence of IL1RI as a negative control. After 1 hour, protein mixtures were incubated with magnetic beads decorated with anti-6His mouse monoclonal antibody obtained as follows. BcMag Protein G Magnetic Beads (50 μl, Bioclone) were washed 3 times with washing buffer (57.7 mM Na2HPO4, 42.3 mM NaH2PO4, pH 7.0) and incubated with anti-6×His mouse monoclonal antibody (1 μg, Abcam) for 30 minutes under rotation. Magnetic beads were separated from the supernatant with neodymium magnets, washed three times with washing buffer (57.7 mM Na2HPO4, 42.3 mM NaH2PO4, pH 7.0) and incubated with protein mixtures for one hour at room temperature under rotation. Magnetic beads were separated from the supernatant with neodymium magnets and washed three times with washing buffer (57.7 mM Na2HPO4, 42.3 mM NaH2PO4, pH 7.0). Immuno-precipitated proteins were eluted with 20 μl of 4× sample buffer (10 minutes, 70° C.). Immuno-precipitated proteins were analyzed by western blotting. […]

T2 sequence (P01584 117-269, one chain of several): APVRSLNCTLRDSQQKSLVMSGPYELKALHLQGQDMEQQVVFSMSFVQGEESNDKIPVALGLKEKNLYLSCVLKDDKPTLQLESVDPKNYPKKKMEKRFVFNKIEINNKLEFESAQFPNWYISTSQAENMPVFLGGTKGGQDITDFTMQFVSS

Row | Molecule | location of blocked trypsin sites on IL1R1 [1] | inhibition of SAPK/JNK signaling downstream from IL1RI [2] | inhibition of ligand pull-down / 3-protein complex formation [3]
1 | O=S(=O)(O)c1cccc2cccc(Nc3ccccc3)c12 [ANSA, 8-Anilino-1-naphthalenesulfonic acid] | lay on the surface of the molecule |  | 
2 | CCN1/C(=C/C=C/c2sc3ccccc3[n+]2CC)Sc2ccccc21 [DECI, 3,3′-Diethylthiacarbocyanine iodide] | lay on the surface of the folded molecule |  | 
3 | HLRNISRISSITDTSETETEQ [scrambled peptide] |  | does not inhibit the signaling downstream from IL1RI | 
4 | CN=C1C=CC(=C(c2ccc(N(C)C)cc2)c2ccc(N(C)C)cc2)C=C1.Cl [MV, N-(4-{bis[4-(dimethylamino)phenyl]methylene}-2,5-cyclohexadien-1-ylidene)methanaminium chloride] | lay on the surface of the folded native molecule |  | 
5 | TINESISHSRTEDETRTQILS [Arg286 peptide] |  | completely blocked IL1 ligand-stimulated signaling, in a dose dependent manner; also recorded: inhibited SAPK/JNK signaling downstream from IL1RI as effectively as IL1RAcP | completely blocked IL1RAcP 3-way binding to the receptor ligand complex; also recorded: inhibition of ligand pull-down
